The results in this text go back to PMC7990177, “Naegleria fowleri: Protein structures to facilitate drug discovery for the deadly, pathogenic free-living amoeba” (PLoS ONE, 2021).

Experiment [1] deals with T1, N. fowleri peptidylprolyl isomerase (NfPPI) (Naegleria fowleri, UniProt A0A2H4A315).
T1 construct: gene NF0084240; N-terminal His tag (vector pBG1861), E. coli BL21(DE3)R3 Rosetta; 119 residues; FKBP family; chains A-D in crystal
T1 sequence (A0A2H4A315 1-119): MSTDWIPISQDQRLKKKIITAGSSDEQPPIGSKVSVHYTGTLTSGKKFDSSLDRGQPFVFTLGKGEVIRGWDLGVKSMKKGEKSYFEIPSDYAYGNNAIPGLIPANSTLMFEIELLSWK
Put plainly: X-ray crystal structure. The settings on record: active site; Fig 4C legend calls the 6MKE ligand FK506-AN. It is filed as binding.

The target of experiment [2] is T2, N. fowleri S-adenosyl-L-homocysteine hydrolase (NfSAHH) (Naegleria fowleri, UniProt A0A1Z0YU84).
T2 construct: gene NF0035640; N-terminal His tag (vector pBG1861), E. coli BL21(DE3)R3 Rosetta; 472 residues; homo-tetramer in asymmetric unit
T2 sequence (A0A1Z0YU84 1-472): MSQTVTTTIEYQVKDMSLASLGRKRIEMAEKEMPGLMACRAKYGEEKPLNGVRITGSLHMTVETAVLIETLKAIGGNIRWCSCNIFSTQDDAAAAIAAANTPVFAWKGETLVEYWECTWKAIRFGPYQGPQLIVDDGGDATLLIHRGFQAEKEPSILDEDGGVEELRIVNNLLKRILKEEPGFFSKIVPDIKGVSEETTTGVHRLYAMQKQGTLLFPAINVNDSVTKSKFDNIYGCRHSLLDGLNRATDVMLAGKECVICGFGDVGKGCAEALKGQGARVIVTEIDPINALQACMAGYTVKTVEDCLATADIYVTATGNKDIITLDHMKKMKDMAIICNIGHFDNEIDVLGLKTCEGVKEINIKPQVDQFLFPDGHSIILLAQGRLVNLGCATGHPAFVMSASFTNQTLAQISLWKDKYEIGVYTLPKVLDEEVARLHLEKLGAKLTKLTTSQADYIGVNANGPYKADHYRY
The experiment in a line: X-ray crystal structure. The experiment is classed as binding.

Structures are written as SMILES.

Regarding `C=CC[C@@H]1/C=C(\C)C[C@H](C)C[C@H](OC)[C@H]2O[C@@](O)(C(=O)C(=O)N3CCCC[C@H]3C(=O)O[C@H](/C(C)=C/[C@@H]3CC[C@@H](O)[C@H](OC)C3)[C@H](C)[C@@H](O)CC1=O)[C@H](C)C[C@@H]2OC` [FK506], the X-ray crystal structure entry in experiment [1] is reported as “Quaternary structure of NfPPI (6MKE)”.

`NC(=O)c1ccc[n+]([C@@H]2O[C@H](COP(=O)(O)OP(=O)(O)OC[C@H]3O[C@@H](n4cnc5c(N)ncnc54)[C@H](O)[C@@H]3O)[C@@H](O)[C@H]2O)c1` [NAD]: the X-ray crystal structure result in experiment [2] (with adenosine, 2.0 Å omit map shown) was “contains the adenosine substrate and NAD cofactors bound to the active site”.

For `Nc1ncnc2c1ncn2[C@@H]1O[C@H](CO)[C@@H](O)[C@H]1O` [adenosine], in experiment [2] (with NAD, active site, closed conformation), the X-ray crystal structure entry was “contains the adenosine substrate and NAD cofactors bound to the active site”.
